Experimental data taken from patent US20120208882A1, “Organic Compounds” (priority 2005, published 2012).
Counter-ions that a name gives are not always drawn. Like-named read-outs stand apart in the source and are kept apart here.

Tests used:
[1] = system: Human bronchial epithelial cells (amiloride-sensitive, ENaC-mediated short circuit current); test: Epithelial ion transport: amiloride-sensitive short circuit current in Ussing chambers; format: cell-based; settings: Epithelial cell, 1.5 h, 50% inhibition of aprotinin-sensitive component of amiloride-sensitive ISC, 90 minutes treatment, read-out: HBEC (IC50)
Experimental: (§1) Biochemical assays: Recombinant human prostasin and matriptase and guinea pig prostasin are generated according to methods described in Shipway et al., Biochemical and Biophysical Research Communications 2004; 324(2):953-63). The recombinant enzymes are incubated in an electrolyte buffer test compounds or vehicle in a suitable multiple well assay plate such as a 96 or 384 well plate. At a defined time after the mixing of enzyme with compound. Or vehicle, a suitable fluorescent peptide substrate is added to the assay mixture. As substrate becomes cleaved by the active enzyme; fluorescence (measured using a suitable fluorescence plate reader) increases and the rate of turnover of substrate (i.e. enzyme activity) can be quantified and thus the inhibitory effect of any test compound. The efficacy of test compounds is expressed as the concentration that induces a 50% attenuation in the enzyme activity (Ki). […] Short circuit current (ISC) is then measured by voltage clamping the epithelia to zero millivolts. The amiloride-sensitive ISC is then measured by the addition of amiloride (10 μM) to the apical surface of the epithelia. […] The tracheal potential difference, is then measured using a suitable high impedance voltmeter as described in Takahashi et al., Toxicol Appl Pharmacol. 1995; 131(1):31-6. […]

[2] = system: Guinea pig tracheal potential difference; test: Tracheal potential difference (in vivo); settings: for ED50: Cavia porcellus, inhaled or nasal, i.t., read-out: GPig tracheal PD in vivo (ED50)
Experimental: Biochemical assays: Recombinant human prostasin and matriptase and guinea pig prostasin are generated according to methods described in Shipway et al., Biochemical and Biophysical Research Communications 2004; 324(2):953-63). The recombinant enzymes are incubated in an electrolyte buffer test compounds or vehicle in a suitable multiple well assay plate such as a 96 or 384 well plate. At a defined time after the mixing of enzyme with compound. Or vehicle, a suitable fluorescent peptide substrate is added to the assay mixture. As substrate becomes cleaved by the active enzyme; fluorescence (measured using a suitable fluorescence plate reader) increases and the rate of turnover of substrate (i.e. enzyme activity) can be quantified and thus the inhibitory effect of any test compound. The efficacy of test compounds is expressed as the concentration that induces a 50% attenuation in the enzyme activity (Ki). Epithelial ion transport: Human bronchial epithelial cells are cultured according to methods described in Danahay et al., American Journal of Physiology Lung Cell Molecular Physiology 2002; 282(2):L226-36). When suitably differentiated (days 14-21 after establishing an apical-air interface) epithelial cells are treated with either vehicle, aprotinin (200 μg/ml) or test compound for 90 minutes. Epithelia are then, placed into Ussing Chambers as described in Danahay et al., American Journal of Physiology Lung Cell Molecular Physiology 2002; 282(2):L226-36) maintaining the concentration of vehicle, aprotinin or test compound on the apical side of the epithelia. Short circuit current (ISC) is then measured by voltage clamping the epithelia to zero millivolts. The amiloride-sensitive ISC is then measured by the addition of amiloride (10 μM) to the apical surface of the epithelia. The potency of the test compound is expressed as the concentration inducing a 50% inhibition of the total aprotinin-sensitive component of the amiloride-sensitive ISC. Tracheal potential difference (in vivo): Guinea pigs are anaesthetized using a short acting inhalation anaesthesia such as halothane and N20. Whilst under short acting anaesthesia an oral gavage needle is inserted into the trachea via the oropharangeal route. Once inside the trachea, a small volume (50-200 μl) of vehicle or test compound, in a suitable aqueous-based diluent, is instilled into the airways. Animals then recover and become fully ambulatory. Alternatively test compounds can be administered to animals using aerosol or dry powder dosing. At a defined time after dosing, the animals are surgically anaesthetized using a suitable anaesthesia such as ketamine and xylazine. The trachea is then exposed and a plastic agar bridge electrode is inserted into the tracheal lumen. A reference electrode is also inserted into the layers, of muscle in the animal's neck. The tracheal potential difference, is then measured using a suitable high impedance voltmeter as described in Takahashi et al., Toxicol Appl Pharmacol. 1995; 131(1):31-6. The potency of the test compound is expressed as the dose inducing a 50% reduction in the sensitive-component of the tracheal potential difference.

[3] = target: T1, rh-prostasin (Homo sapiens, UniProt Q16651); test: Biochemical assay, recombinant human prostasin, fluorescent peptide substrate
T1 construct: made in house
Experimental: as §1

[4] = target: T2, rh-matriptase (Homo sapiens, UniProt Q9Y5Y6); test: Biochemical assay, recombinant human matriptase, fluorescent peptide substrate
T2 construct: made in house
T2 sequence (Q9Y5Y6 1-855): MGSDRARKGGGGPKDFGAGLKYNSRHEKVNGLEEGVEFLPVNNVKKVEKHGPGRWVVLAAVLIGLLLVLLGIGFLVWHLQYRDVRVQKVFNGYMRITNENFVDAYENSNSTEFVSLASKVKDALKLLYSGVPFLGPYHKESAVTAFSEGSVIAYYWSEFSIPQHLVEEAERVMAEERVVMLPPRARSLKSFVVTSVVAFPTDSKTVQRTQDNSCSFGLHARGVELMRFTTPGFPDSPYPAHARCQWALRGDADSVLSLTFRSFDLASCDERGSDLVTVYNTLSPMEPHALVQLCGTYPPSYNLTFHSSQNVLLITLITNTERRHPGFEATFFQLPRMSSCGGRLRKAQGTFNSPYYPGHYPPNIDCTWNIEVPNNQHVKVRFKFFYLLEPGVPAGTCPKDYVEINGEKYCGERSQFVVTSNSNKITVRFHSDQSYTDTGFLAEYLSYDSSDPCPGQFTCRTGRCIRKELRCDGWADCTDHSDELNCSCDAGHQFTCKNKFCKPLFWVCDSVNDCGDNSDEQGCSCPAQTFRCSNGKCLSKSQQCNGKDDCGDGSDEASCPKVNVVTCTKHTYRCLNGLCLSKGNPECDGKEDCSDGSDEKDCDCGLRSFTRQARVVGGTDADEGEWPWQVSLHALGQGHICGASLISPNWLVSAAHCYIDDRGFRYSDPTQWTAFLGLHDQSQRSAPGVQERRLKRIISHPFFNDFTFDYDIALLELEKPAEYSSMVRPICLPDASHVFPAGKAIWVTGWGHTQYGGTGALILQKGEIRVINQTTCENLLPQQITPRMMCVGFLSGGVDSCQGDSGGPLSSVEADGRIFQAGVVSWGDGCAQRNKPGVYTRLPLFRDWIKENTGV
Experimental: as §1

[5] = target: rGPig-prostasin (Cavia porcellus, UniProt A0A286XIW9); test: Biochemical assay, recombinant guinea pig prostasin, fluorescent peptide substrate
Experimental: as §1

T1 sequence (Q16651 33-343): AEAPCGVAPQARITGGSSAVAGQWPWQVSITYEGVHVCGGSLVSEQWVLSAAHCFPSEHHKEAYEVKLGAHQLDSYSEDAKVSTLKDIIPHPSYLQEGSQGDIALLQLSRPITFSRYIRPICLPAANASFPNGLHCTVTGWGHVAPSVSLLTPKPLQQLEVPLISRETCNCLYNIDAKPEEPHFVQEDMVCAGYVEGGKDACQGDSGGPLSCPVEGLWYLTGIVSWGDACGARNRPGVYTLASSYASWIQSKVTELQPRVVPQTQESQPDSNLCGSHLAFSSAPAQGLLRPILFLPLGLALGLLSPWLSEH
rGPig-prostasin, sequence (A0A286XIW9 1-343): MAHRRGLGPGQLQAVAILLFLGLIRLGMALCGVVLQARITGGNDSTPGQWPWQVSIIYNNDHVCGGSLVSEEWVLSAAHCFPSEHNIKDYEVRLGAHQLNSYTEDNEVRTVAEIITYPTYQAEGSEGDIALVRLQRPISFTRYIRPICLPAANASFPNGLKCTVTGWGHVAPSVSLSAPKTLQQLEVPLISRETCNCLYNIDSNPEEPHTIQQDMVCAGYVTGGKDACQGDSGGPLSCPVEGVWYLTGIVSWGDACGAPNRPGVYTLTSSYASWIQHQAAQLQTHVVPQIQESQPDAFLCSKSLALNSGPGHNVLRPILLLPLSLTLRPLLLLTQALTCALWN

IC50 [1]: 50 nM
Ki [3]: 429 nM
Ki [4]: 5 nM
Ki [5]: 98 nM
Structure (SMILES): CN(C)C(=O)COC(=O)Cc1ccc(OC(=O)c2ccc(NC(=N)N)cc2)cc1 [Camostat mesylate, N,N-dimethyl-carbamoylmethyl-p-(p-guanidinobenzoyloxy)phenylacetate]
Mean absolute tracheal potential difference (± s.e. mean) ([2]; 2 hr, 1 μg/kg intra-tracheal): −10.0 ± 0.7
Mean absolute tracheal potential difference (± s.e. mean) ([2]; 2 hr, 3 μg/kg intra-tracheal): −7.3 ± 0.5
Mean absolute tracheal potential difference (± s.e. mean) ([2]; 2 hr, 10 μg/kg intra-tracheal): −6.4 ± 0.5
Mean absolute tracheal potential difference (± s.e. mean) ([2]; 2 hr, 30 μg/kg intra-tracheal): −5.3 ± 0.3
Mean absolute tracheal potential difference (± s.e. mean) ([2]; 2 hr, 100 μg/kg intra-tracheal): −4.7 ± 0.5
Mean absolute tracheal potential difference (± s.e. mean) ([2]; 5 hr, 3 μg/kg intra-tracheal): −10.8 ± 1.0
Mean absolute tracheal potential difference (± s.e. mean) ([2]; 5 hr, 10 μg/kg intra-tracheal): −9.7 ± 1.5
Mean absolute tracheal potential difference (± s.e. mean) ([2]; 5 hr, 30 μg/kg intra-tracheal): −7.5 ± 0.4
Mean absolute tracheal potential difference (± s.e. mean) ([2]; 5 hr, 100 μg/kg intra-tracheal): −6.5 ± 0.3
Mean absolute tracheal potential difference (± s.e. mean) ([2]; 5 hr, 300 μg/kg intra-tracheal): −5.2 ± 0.3
Mean absolute tracheal potential difference (± s.e. mean) ([2]; 5 hr, 1000 μg/kg intra-tracheal): −5.7 ± 0.4
ED50 ([2]; 2 hr after dosing): 0.0033 mg/kg
ED50 ([2]; 5 hr after dosing): 0.026 mg/kg
